Test results: patent publication US10815219B2, “2,4-diaminoquinazoline derivatives for inhibiting endoplasmic reticulum (ER) stress” (The Board of Regents of the University of Oklahoma, priority 2017, dated 2020)
Read-outs that look alike come from different tables or passages of the source.

Key:
XBP1s mRNA = assay: XBP1 splicing (qRT-PCR and RT-PCR) in Tm-treated INS-1 cells; type: cell-based, rat; conditions: Tm 0.1 μg/mL, 9c 20 μM
Source text: Next, we investigated the mechanism by which 9c protects β cells against ER stress. In response to ER stress, all three branches of the UPR, IRE1α, PERK and ATF6, are activated to either restore cellular homeostasis/survival or lead to cell death, depending on the severity of ER stress. First, we asked whether 9c affects the activation of IRE1α in β cells under ER stress. Activated IRE1α cleaves X-box binding protein-1 (XBP1) mRNA to generate a spliced form (XBP1s) that is translated into a potent transcription factor which controls expression of UPR genes encoding factors involved in ER protein folding and degradation. We therefore determined the effect of 9c on IRE1α-mediated XBP1 splicing in INS-1 cells in the presence of Tm.
INS-1 cells were seeded at 4×10^5 cells/well in 6-well plates and treated with compounds for the indicated times. Total RNA was extracted using TRIzol reagent (Invitrogen, Carlsbad, Calif.) according to the manufacturer's protocol, and 2 μg of total RNA was reverse transcribed using a Superscript kit (Invitrogen). Real-time PCR was performed in 96-well format using SYBR Select Master Mix (Applied Biosystems, Foster City, Calif.) with an ABI 7500 PCR system (Applied Biosystems). The primer sequences used are shown in U.S. Ser. No. 62/542,408, Aug. 8, […].

INS-1 cells [1] = assay: INS-1 cell survival after Tm treatment (CellTiter-Glo, intracellular ATP); type: cell-based, rat; conditions: for EC50: Rattus norvegicus, read-out: EC50
Method: A structure-activity-relationship (SAR) study was thus conducted to improve the weak potency of lead compound 5a. Newly synthesized or commercially available compounds were tested for their β-cell-protective activity against ER stress in rat INS-1 β-cells. […] Maximum activity value in the tables is reported as % rescue from Tm (0.1 μg/mL)-induced reduction of cell viability. The values for Tm treatment alone and control (DMSO, without Tm) treatment are designated as 0% and 100%, respectively in all tables. EC50 values (the concentrations that reach half-maximal activity) for INS-1 cell viability were calculated with GraphPad Prism from the data of ten 2-fold serial titration points in all tables. All experiments were performed in triplicate in all tables.
(§1) INS-1 cells or βTC6 cells were seeded at 3×10^3 cells/well in a 384-well plate and treated with compounds at the indicated concentrations. After 3 d treatment, the medium was aspirated and 20 μL/well of CellTiter-Glo reagent (Promega, WI, USA) was added for the detection of intracellular ATP levels. Cell viability was measured with an EnVision multilabel plate reader (PerkinElmer, MA, USA).

ATF4 and CHOP protein = assay: Western blotting of ATF4 and CHOP in Tm-treated INS-1 cells; type: cell-based, rat; conditions: Tm 0.1 μg/mL, 9c 20 μM, FIG. 8C
Source text: We then determined the effect of 9c on the activation of the PERK pathway in β cells under ER stress. Activated PERK phosphorylates eukaryotic translation initiator factor 2a (eIF2α), which in turn attenuates general protein synthesis to relieve ER load. EIF2α phosphorylation also allows the selective translation of ATF4 mRNA, which encodes a transcription factor that induces the expression of the pro-apoptotic gene C/EBP-homologous protein (CHOP). Thus, we used ATF4 and CHOP expression levels as markers of PERK pathway activation. […] Together, our results that 9c inhibited the ER stress-mediated activation of all three UPR pathways indicate that 9c protects β cell survival by alleviating ER stress.
INS-1 cells were seeded in 60-mm dishes at 8×10^5 cells/dish and treated for the indicated times. Cells were then washed with PBS and lysed with lysis buffer (Cell Signaling Technology, Danvers, Mass.) containing EDTA (Thermo, IL) and phosphatase inhibitors (Thermo). Aliquots of 20 μg total protein were separated on 7% SDS-PAGE gels (Life Technologies) and transferred to PVDF membranes (Life Technologies). The membranes were probed with primary antibodies followed by the appropriate HRP-conjugated secondary antibodies (goat anti-rabbit IgG and goat anti-mouse IgG, 1:3000; Santa Cruz Biotechnology, CA, USA). Blots were then developed. […]

INS-1 cells [2] = assay: INS-1 cell viability after BFA treatment (CellTiter-Glo); type: cell-based, rat; conditions: BFA 0.2 μg/mL, 9c 20 μM, 72 h, FIG. 3D
Source text: (§2) To rule out the possibility of an ATP-specific (rather than viability) effect of the compounds, we used the MTT assay, which measures the activity of NAD(P)H-dependent cellular oxidoreductase enzymes, as an orthogonal method to measure cell viability. […] To confirm that the protective effect of 9c on β cells is not INS-1 cell-specific, another β cell line, βTC6, was used. […] To determine whether the protective effect of 9c on β cells is specific to Tm-induced stress, we used another ER stressor, BFA, which inhibits a key guanine nucleotide exchange factor essential for the transport of proteins from the ER to the Golgi, to treat INS-1 cells.
as §1

βTC6 cells = assay: βTC6 cell viability after Tm treatment (MTT); type: cell-based; conditions: Tm 0.25 μg/mL, 72 h, FIG. 3C
Source text: as §2
INS-1 cells or βTC6 cells were seeded at 3×10^3 cells/well in a 384-well plate and treated with compounds at the indicated concentrations. After 3 d treatment, the medium was aspirated and 10 μl of MTT reagent (Cayman Chemical, MI, USA, prepared according to manufacturer's instruction) to each well was added and mixed gently for one minute on an orbital shaker. The cells were then incubated for three hours at 37° C. in a CO2 incubator. After incubation, add 100 μl of crystal dissolving solution to each well, and incubate for 4 hours in a 37° C. CO2 incubator. Viability will be measured for the absorbance to each sample at 570 nm using EnVision multilabel plate reader (PerkinElmer, MA, USA).

SMILES: COc1ccc(CNc2nc(N3CCCCC3CO)nc3ccccc23)cc1 (racemic) [Compound 9c, (1-(4-((4-methoxybenzyl)amino)quinazolin-2-yl)piperidin-2-yl)methanol]
- XBP1s mRNA (qRT-PCR) (XBP1s mRNA; FIG. 6A): suppressed
- XBP1s mRNA (RT-PCR, electrophoretic separation of spliced and unspliced forms) (XBP1s mRNA; FIG. 6B): inhibits the Tm-induced generation of XBP1s mRNA
- Maximum activity (INS-1 cells [1]; % rescue from Tm (0.1 μg/mL)-induced reduction of cell viability, 72 h, Tm alone 0%, DMSO 100%, Table 3): 80.4%
- maximum activity (rescue) (INS-1 cells [1]; % rescue from Tm-induced reduction of INS-1 cell viability): 80%
- concentration exhibiting the maximum protective activity (INS-1 cells [1]; INS-1 cells, Tm 0.1 μg/mL, 72 h, based on dose-dependent curves): 5 µM
- EC50 (INS-1 cells [1]; INS1, 72 h, INS-1 cell viability, Tm 0.1 μg/mL, 72 h, ten 2-fold serial titration points, Table 3): 560 ± 180 nM
- EC50 (INS-1 cells [1]; INS1, running text, INS-1 cell viability in presence of Tm): 560 nM
- ATF4 and CHOP protein levels (ATF4 and CHOP protein): decreased ATF4 and CHOP protein levels
- viability of INS-1 cells against BFA (INS-1 cells [2]): protected INS-1 cells against BFA
- viability of βTC6 cells (MTT, NAD(P)H-dependent oxidoreductase activity) (βTC6 cells): rescued the viability of βTC6 cells in a dose-dependent manner
